pIC50: −log10 of the molar value. Read-outs that look alike come from different tables or passages of the source.
Experiments:
[1] = test system: MDBK line; assay: MTT Cell Proliferation Assay, MDBK line; assay type: cell-based, bovine; conditions: Bos taurus, MDBK
Summary of the method: (§1)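 Cells plated overnight, then exposed 3 days at 37 °C, 5% CO2 to compound in growth medium with 0.5% FBS and 0.5% DMSO final (0.5% DMSO as control).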

[2] = target: T1, EGFR (Homo sapiens, UniProt P00533); assay: EGFR in-cell Western (ICW) screening protocol; assay type: cell-based; design: unit not given here; conditions: for ICW Screen: initial screen
T1 construct: endogenous in cells; host or cells: A431 cells (ATCC CRL-1555)
Summary of the method: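 Serum-starved cells treated with compound 4 h at 37 °C, then stimulated with EGF (20 or 0 ng/ml solution added) in its continued presence. In-cell Western on fixed cells: phospho-EGFR (800 channel) normalised to total EGFR (700 channel), % inhibition calculated against EGF-stimulated and unstimulated no-compound wells.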

[3] = test system: epithelial carcinoma A431 cell line; assay: MTT Cell Proliferation Assay, A431 cell line; assay type: cell-based; conditions: for MTT (10 Point follow-up) ratio / MTT-72 h A431/MDBK (ratio): value in brackets; for MTT (10 Point follow-up) ratio: numerically MDBK over A431; for MTT-72 h A431/MDBK (ratio): numerically MDBK value over A431 value; for pIC50: Homo sapiens
Summary of the method: as §1

[4] = 10 point follow-up, second value of pair, read-out: MTT (10 Point follow-up) MDBK
[5] = 72 h, second value of A431/MDBK pair, read-out: MTT-72 h MDBK
[6] = A-431, 10 point follow-up, first value of pair, read-out: MTT (10 Point follow-up) A431
[7] = A-431, 72 h, 72 h, first value of A431/MDBK pair, read-out: MTT-72 h A431

T1 sequence (P00533 25-1210): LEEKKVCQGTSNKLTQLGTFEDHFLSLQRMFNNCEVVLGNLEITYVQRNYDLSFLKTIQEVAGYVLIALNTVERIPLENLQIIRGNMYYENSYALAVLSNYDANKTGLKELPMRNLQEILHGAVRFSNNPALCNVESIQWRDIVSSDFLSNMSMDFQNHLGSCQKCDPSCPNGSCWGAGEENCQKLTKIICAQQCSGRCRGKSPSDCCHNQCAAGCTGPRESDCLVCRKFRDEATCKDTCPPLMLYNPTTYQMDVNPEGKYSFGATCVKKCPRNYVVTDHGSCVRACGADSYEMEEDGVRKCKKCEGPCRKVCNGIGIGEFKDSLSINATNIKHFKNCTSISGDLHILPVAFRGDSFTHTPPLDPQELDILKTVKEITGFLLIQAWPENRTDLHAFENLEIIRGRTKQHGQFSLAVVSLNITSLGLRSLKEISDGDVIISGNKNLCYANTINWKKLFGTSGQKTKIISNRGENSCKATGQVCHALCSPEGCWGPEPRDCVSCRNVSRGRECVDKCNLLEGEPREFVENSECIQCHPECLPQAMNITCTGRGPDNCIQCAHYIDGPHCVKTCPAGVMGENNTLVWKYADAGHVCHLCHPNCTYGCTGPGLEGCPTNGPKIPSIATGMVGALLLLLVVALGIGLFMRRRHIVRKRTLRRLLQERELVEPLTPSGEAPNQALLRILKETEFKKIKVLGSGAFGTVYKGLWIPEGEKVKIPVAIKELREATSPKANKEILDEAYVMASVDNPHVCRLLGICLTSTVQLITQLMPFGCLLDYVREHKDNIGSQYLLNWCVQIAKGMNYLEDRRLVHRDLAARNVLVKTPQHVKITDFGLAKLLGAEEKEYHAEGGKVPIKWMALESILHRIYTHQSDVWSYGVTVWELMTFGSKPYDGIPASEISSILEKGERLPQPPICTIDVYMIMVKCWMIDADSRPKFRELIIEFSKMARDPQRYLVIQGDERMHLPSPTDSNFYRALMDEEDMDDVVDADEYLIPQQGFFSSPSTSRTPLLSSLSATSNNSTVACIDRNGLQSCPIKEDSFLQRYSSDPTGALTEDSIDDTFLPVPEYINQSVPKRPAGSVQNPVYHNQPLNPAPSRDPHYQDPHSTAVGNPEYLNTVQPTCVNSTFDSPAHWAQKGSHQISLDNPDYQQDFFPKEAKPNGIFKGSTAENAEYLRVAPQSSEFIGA

Row | SMILES | pIC50 [1, 4] | pIC50 [1, 5] | ICW Screen [2] | ICW Re-Test [2] | MTT (10 Point follow-up) ratio [3] | MTT-72 h A431/MDBK (ratio) ([3]; 72 h) | pIC50 [3, 6] | pIC50 [3, 7] | MTT-72 h % Max ([3]; 72 h, maximal effect printed after the ratio)
1 | COc1ccc(Cl)cc1C(Nc1ccccn1)c1cc(Cl)c2cccnc2c1O (stereo not shown) [compound 10943] | 5.73 | 5.68 | 44.28 | 68.79 | 1.50 | 1.60 | 5.90 | 5.88 | –
2 | CCOc1cc(C(Nc2cc(C)ccn2)c2ccc3ccc(C)nc3c2O)ccc1O (stereo not shown) [compound 10071] | – | 4.97 | 40.85 | 43.19 | – | 1.37 | – | 5.10 | –
3 | COC(=O)c1ccc(NC(c2cccs2)c2ccc3cccnc3c2O)cc1 (stereo not shown) [compound 11015] | – | 5.41 | 64.21 | 57.97 | – | 0.76 | – | 5.29 | –
4 | Oc1c(C(Nc2ccccn2)c2ccc(OC(F)F)cc2)ccc2cccnc12 (stereo not shown) [compound 10466] | 6.11 | 6.02 | 17.15 | – | 1.08 | 1.31 | 6.14 | 6.14 | –
5 | Fc1cccc(C(Nc2ccccn2)c2ccc3cccnc3c2)c1 (stereo not shown) [compound 11191] | – | 5.26 | 40.32 | 22.02 | – | 0.99 | – | 5.25 | –
6 | COc1cc(C(Nc2ccccn2)c2cc(Cl)c3cccnc3c2O)cc(Br)c1O (stereo not shown) [compound 10087] | 5.26 | 5.24 | 62.13 | 41.13 | 1.18 | 1.11 | 5.33 | 5.28 | –
7 | Oc1c(C(Nc2ccccn2)c2cccc(Cl)c2)cc(Cl)c2cccnc12 (stereo not shown) [compound 10097] | 5.68 | 5.22 | 28.02 | – | 1.66 | 0.98 | 5.90 | 5.21 | –
8 | CCOc1ccc(C(Nc2cc(C)ccn2)c2ccc3cccnc3c2O)cc1OCC (stereo not shown) [compound 10143] | – | 5.36 | 45.61 | 27.18 | – | 0.92 | – | 5.32 | –
9 | Oc1c(C(Nc2ccc(F)cc2)c2ccncc2)ccc2cccnc12 (stereo not shown) [compound 11153] | – | 5.25 | 28.24 | 20.64 | – | 0.43 | – | 4.88 | –
10 | CCN1CCN(C(c2ccc(C(F)(F)F)cc2)c2ccc3cccnc3c2O)CC1 (stereo not shown) [compound 10535] | 5.54 | 5.40 | 44.02 | 52.63 | 1.43 | 1.45 | 5.69 | 5.57 | –
11 | Oc1c(C(Nc2ccccn2)c2ccccn2)cc(Cl)c2cccnc12 (stereo not shown) [compound 10954] | 5.66 | 5.64 | 31.09 | – | 1.26 | 1.33 | 5.79 | 5.76 | –
12 | Cc1cccc(NC(c2cccnc2)c2ccc3cccnc3c2O)n1 (stereo not shown) [compound 10975] | – | 4.45 | 53.5 | 34.86 | – | 0.68 | – | 4.28 | –
13 | Oc1c(C(Nc2cccc(Cl)c2)c2cccnc2)ccc2cccnc12 (stereo not shown) [compound 11057] | – | 5.10 | 44.4 | 73.29 | – | 0.98 | – | 5.10 | –
14 | Cc1ccc(C)c(C(Nc2cccnc2)c2cc(Cl)c3cccnc3c2O)c1 (stereo not shown) [compound 10944] | 5.56 | 5.53 | 68.22 | 67.75 | – | – | 5.73 | 5.69 | –
15 | Cc1cccc(NC(c2ccc(Cl)cc2)c2ccc3cccnc3c2O)n1 (stereo not shown) [compound 10058] | 5.77 | 5.23 | 28.52 | – | 1.56 | 1.13 | 5.97 | 5.29 | –
16 | Cc1ccc2ccc(C(Nc3ccccn3)c3ccc(C)s3)c(O)c2n1 (stereo not shown) [compound 10961] | – | 4.36 | 94.69 | 71.58 | – | 1.34 | – | 4.49 | 50%
17 | CCc1ccc(C(Nc2ccccn2)c2ccc3cccnc3c2O)cc1 (stereo not shown) [compound 10041] | 5.63 | 5.53 | 45.08 | 3.45 | 1.47 | 1.00 | 5.80 | 5.53 | –
18 | Oc1c(C(Nc2ccccn2)c2ccccc2Br)cc(Cl)c2cccnc12 (stereo not shown) [compound 10074] | 5.80 | – | 6.951 | – | 1.16 | – | 5.86 | – | –
19 | Cc1ccnc(NC(c2cc(C)ccc2O)c2ccc3cccnc3c2O)c1 (stereo not shown) [compound 10029] | – | 5.27 | 40.02 | 35.03 | – | 0.84 | – | 5.19 | –
20 | COc1ccc(C(Nc2cc(C)ccn2)c2ccc3cccnc3c2O)cc1C (stereo not shown) [compound 10005] | 5.38 | 5.43 | 43.76 | 33.76 | 1.20 | 1.07 | 5.46 | 5.46 | –
21 | Cc1ccc(NC(c2ccccc2O)c2ccc3cccnc3c2O)nc1 (stereo not shown) [compound 10430] | – | 5.25 | 43.81 | 48.57 | – | 0.86 | – | 5.19 | –
22 | Cc1ccnc(NC(c2ccc(C(F)(F)F)cc2)c2ccc3cccnc3c2O)c1 (stereo not shown) [compound 10486] | 6.07 | 6.10 | 25.02 | – | 3.07 | 2.76 | 6.56 | 6.54 | –
23 | Oc1cccnc1NC(c1ccc(F)cc1)c1ccc2cccnc2c1O (stereo not shown) [compound 10509] | 5.71 | 5.69 | 31.55 | – | 1.56 | 1.60 | 5.90 | 5.89 | –
24 | Cc1ccc2ccc(C(Nc3ccccn3)c3cccnc3)c(O)c2n1 (stereo not shown) [compound 10967] | – | 4.51 | 25.98 | 15.92 | – | 0.67 | – | 4.34 | –
25 | COc1ccc(C(NC(=O)c2cccnc2)c2cc(Cl)c3cccnc3c2O)cc1OC (stereo not shown) [compound 10969] | 6.28 | – | 30.17 | 73.15 | 1.02 | – | 6.29 | – | –
26 | Cc1ccnc(NC(c2ccc(Cl)cc2)c2ccc3cccnc3c2O)c1 (stereo not shown) [compound 10481] | 5.91 | – | 25.82 | – | 1.54 | – | 6.10 | – | –
